US7585859B2, “PDE4B inhibitors and uses therefor” (Plexxikon, Inc., priority 2004, dated 2009)
pIC50: −log10 of the molar value.

Columns and labels:
[1] = target: T1, PDE4D (Homo sapiens, UniProt Q08499); assay: PDE4 IC50 determination by Scintillation Proximity Assay, PDE4D; assay type: biochemical; details: Table 1B, Formula I compounds; read-out: IC50 PDE4D
T1 construct: PDE4D: The catalytic domain of human PDE4B from S3 16-V692; His6 (N); thrombin cleavage site (N); made in house; host or cells: E. coli
T1 sequence (Q08499 380-756): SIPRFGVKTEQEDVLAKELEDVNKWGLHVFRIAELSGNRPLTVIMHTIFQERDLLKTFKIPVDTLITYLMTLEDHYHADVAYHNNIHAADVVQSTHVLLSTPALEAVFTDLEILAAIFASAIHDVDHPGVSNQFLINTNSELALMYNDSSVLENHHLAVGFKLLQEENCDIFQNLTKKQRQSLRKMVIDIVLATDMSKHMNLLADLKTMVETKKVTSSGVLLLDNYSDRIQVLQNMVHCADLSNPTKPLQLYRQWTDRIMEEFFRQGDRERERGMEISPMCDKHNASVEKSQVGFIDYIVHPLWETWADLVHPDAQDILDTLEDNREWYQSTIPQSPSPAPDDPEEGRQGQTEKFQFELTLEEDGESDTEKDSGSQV
Procedure: (§1) IC50s were determined by Scintillation Proximity Assay (SPA). The principle of the assay is based on the fact that cAMP, the PDE4 substrate, binds weakly to Yittrium Silicate SPA beads, whereas AMP, the product of PDE4 hydrolysis binds strongly. Thus, the extent of PDE4 hydrolysis of a sample of [^3H]cAMP can be measured because only the
(§2) [^3H]AMP produced by PDE4 hydrolysis will bind to the SPA beads and produce a scintillation signal.
(§3) PDE4 enzymes used for IC50 assays were:
(§4) Enzyme was stored in 50% glycerol at −20°.
(§5) In addition to the compound dilutions, each assay plate contained control wells with 1 μl of DMSO (to define 0% enzyme inhibition) or 1 μl of 200 μM roflumilast (to define 100% enzyme inhibition). […] Next, 10 μl of PDE4 enzyme in assay buffer was added and the plates were shaken for 30 s. at 1000 rpm to start the cAMP hydrolysis reaction. The concentrations of enzyme used were: PDE4B, 80 ng/ml; PDE4D, 4 ng/ml; PDE4B2, 2.5 μl of 50% glycerol stock/ml; PDE4D5 0.083 μl of 50% glycerol stock/ml. Assay plates were covered and incubated for 30 min. at 30°. […] The assay plates were covered with clear plastic film, centrifuged for 1 min. at 1000 RPM to settle the SPA beads, and counted using a Wallac TriLux scintillation counter. IC50's were calculated from the raw assay data by non-linear regression curve fitting using the Assay Explorer software package from MDL.

[2] = target: T2, PDE4B: The catalytic domain of human PDE4B from S152-S528 (Homo sapiens, UniProt Q07343); assay: PDE4 IC50 determination by Scintillation Proximity Assay, PDE4B; assay type: biochemical; details: Table 1B, Formula I compounds; read-out: IC50 PDE4B
T2 construct: His6 (N); thrombin cleavage site (N); made in house; host or cells: E. coli
T2 sequence (Q07343 with tags, fused parts or gaps): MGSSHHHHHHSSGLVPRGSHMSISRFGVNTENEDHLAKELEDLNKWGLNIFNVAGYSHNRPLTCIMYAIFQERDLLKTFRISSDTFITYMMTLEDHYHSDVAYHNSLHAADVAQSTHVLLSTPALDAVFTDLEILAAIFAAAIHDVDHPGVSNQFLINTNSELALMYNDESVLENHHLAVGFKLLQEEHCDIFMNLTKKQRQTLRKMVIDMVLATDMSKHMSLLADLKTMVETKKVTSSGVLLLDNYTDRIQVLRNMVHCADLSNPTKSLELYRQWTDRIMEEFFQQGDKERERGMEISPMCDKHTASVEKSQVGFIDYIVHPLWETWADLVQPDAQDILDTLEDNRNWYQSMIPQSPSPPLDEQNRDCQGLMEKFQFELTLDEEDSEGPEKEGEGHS
Procedure: as §1, §2, §3, §4, §5

Structure (SMILES) | pIC50 [1] | pIC50 [2]
COC(=O)C(CCSC)Nc1sc(C(=O)c2ccccn2)c(N)c1C#N (stereo not drawn) [Compound 1-65, 2-[4-Amino-3-cyano-5-(pyridine-2-carbonyl)-thiophen-2ylamino]-4-methylsulfanyl-butyric acid methyl ester] | < 5.00 | < 5.00
N#Cc1c(Nc2ccc(Oc3ccccc3)cc2)sc(C(=O)c2ccc(-c3ccccn3)s2)c1N [Compound 1-76, 4-Amino-2-(4-phenoxy-phenylamino)-5-(5-pyridin-2-yl-thiophene-2-carbonyl)-thiophene-3-carbonitrile] | < 5.00 | > 5.00
COC(=O)C(CC(C)C)Nc1sc(C(=O)c2cc(-c3ccc(Cl)c(Cl)c3)no2)c(N)c1C#N (stereo not drawn) [Compound 1-84, 2-{4-Amino-3-cyano-5-[3-(3,4-dichloro-phenyl)-isoxazole-5-carbonyl]-thiophen-2-ylamino}-4-methyl-pentanoic acid methyl ester] | < 5.00 | < 5.00
COC(=O)C(CC(C)C)Nc1sc(C(=O)c2ccc(C)cc2C)c(N)c1C#N (stereo not drawn) [Compound 1-87, 2-[4-Amino-3-cyano-5-(2,4-dimethyl-benzoyl)-thiophen-2-ylamino]-4-methyl-pentanoic acid methyl ester] | < 5.00 | < 5.00
COC(=O)C(CCSC)Nc1sc(C(=O)c2ccc(C)cc2C)c(N)c1C#N (stereo not drawn) [Compound 1-88, 2-[4-Amino-3-cyano-5-(2,4-dimethyl-benzoyl)-thiophen-2-ylamino]-4-methylsulfanyl-butyric acid methyl ester] | < 5.00 | > 5.00
Cc1ccc(C(=O)c2sc(NC3CCOC3=O)c(C#N)c2N)c(C)c1 (stereo not drawn) [Compound 1-91, 4-Amino-5-(2,4-dimethyl-benzoyl)-2-(2-oxo-tetrahydro-furan-3-ylamino)-thiophene-3-carbonitrile] | < 5.00 | > 5.00
COC(=O)C(CCSC)Nc1sc(C(=O)c2cc(OC)ccc2OC)c(N)c1C#N (stereo not drawn) [Compound 1-95, 2-[4-Amino-3-cyano-5-(2,5-dimethoxy-benzoyl)-thiophen-2-ylamino]-4-methylsulfanyl-butyric acid methyl ester] | < 5.00 | > 5.00
COc1ccc(OC)c(C(=O)c2sc(Nc3ccc(Oc4ccccc4)cc3)c(C#N)c2N)c1 [Compound 1-96, 4-Amino-5-(2,5-dimethoxy-benzoyl)-2-(4-phenoxy-phenylamino)-thiophene-3-carbonitrile] | < 5.00 | > 5.00
COc1ccc(OC)c(C(=O)c2sc(NC3CCOC3=O)c(C#N)c2N)c1 (stereo not drawn) [Compound 1-98, 4-Amino-5-(2,5-dimethoxy-benzoyl)-2-(2-oxo-tetrahydro-furan-3-ylamino)-thiophene-3-carbonitrile] | < 5.00 | > 5.00
COc1ccc(Nc2sc(C(=O)c3ccc(OC)cc3OC)c(N)c2C#N)cc1 [Compound 1-101, 4-Amino-5-(2,4-dimethoxy-benzoyl)-2-(4-methoxy-phenylamino)-thiophene-3-carbonitrile] | > 5.00 | > 5.00
COc1ccc(C(=O)c2sc(Nc3ccc4c(c3)CCC4)c(C#N)c2N)c(OC)c1 [Compound 1-102, 4-Amino-5-(2,4-dimethoxy-benzoyl)-2-(indan-5-ylamino)-thiophene-3-carbonitrile] | > 5.00 | > 5.00
COc1ccc(C(=O)c2sc(Nc3ccc(C(=O)NC4CCOC4=O)cc3)c(C#N)c2N)c(OC)c1 (stereo not drawn) [Compound 1-103, 4-[4-Amino-3-cyano-5-(2,4-dimethoxy-benzoyl)-thiophen-2-ylamino]-N-(2-oxo-tetrahydro-furan-3-yl)-benzamide] | < 5.00 | < 5.00
CCc1ccccc1Nc1sc(C(=O)c2ccc(OC)cc2OC)c(N)c1C#N [Compound 1-104, 4-Amino-5-(2,4-dimethoxy-benzoyl)-2-(2-ethyl-phenylamino)-thiophene-3-carbonitrile] | > 5.00 | > 5.00

Next, values leading:

pIC50 [1] | pIC50 [2] | Structure (SMILES)
> 5.00 | > 5.00 | N#Cc1c(NCCN2CCCCC2)sc(C(=O)c2ccc(-c3ccccn3)s2)c1N [Compound 1-70, 4-Amino-2-(2-piperidin-1-yl-ethylamino)-5-(5-pyridin-2-yl-thiophene-2-carbonyl)-thiophene-3-carbonitrile]
> 5.00 | > 5.00 | COC(=O)C(CC(C)C)Nc1sc(C(=O)c2ccc(-c3ccccn3)s2)c(N)c1C#N (stereo not drawn) [Compound 1-72, 2-[4-Amino-3-cyano-5-(5-pyridin-2-yl-thiophene-2-carbonyl)-thiophen-2-ylamino]-4-methyl-pentanoic acid methyl ester]
> 5.00 | > 5.00 | COC(=O)c1ccccc1Nc1sc(C(=O)c2ccc(-c3ccccn3)s2)c(N)c1C#N [Compound 1-73, 2-[4-Amino-3-cyano-5-(5-pyridin-2-yl-thiophene-2-carbonyl)-thiophen-2-ylamino]-benzoic acid methyl ester]
> 5.00 | > 5.00 | N#Cc1c(NC2CCOC2=O)sc(C(=O)c2ccc(-c3ccccn3)s2)c1N (stereo not drawn) [Compound 1-79, 4-Amino-2-(2-oxo-tetrahydro-furan-3-ylamino)-5-(5-pyridin-2-yl-thiophene-2-carbonyl)-thiophene-3-carbonitrile]
> 5.00 | > 5.00 | N#Cc1c(NCC2CCCO2)sc(C(=O)c2ccc(-c3ccccn3)s2)c1N (stereo not drawn) [Compound 1-80, 4-Amino-5-(5-pyridin-2-yl-thiophene-2-carbonyl)-2-[(tetrahydro-furan-2-ylmethyl)-amino]-thiophene-3-carbonitrile]
> 5.00 | > 5.00 | Cc1ccc(C(=O)c2sc(Nc3ccc(C(=O)NC4CCOC4=O)cc3)c(C#N)c2N)c(C)c1 (stereo not drawn) [Compound 1-89, 4-[4-Amino-3-cyano-5-(2,4-dimethyl-benzoyl)-thiophen-2-ylamino]-N-(2-oxo-tetrahydro-furan-3-yl)-benzamide]
> 5.00 | > 5.00 | COc1ccc(OC)c(C(=O)c2sc(Nc3ccccc3F)c(C#N)c2N)c1 [Compound 1-92, 4-Amino-5-(2,5-dimethoxy-benzoyl)-2-(2-fluoro-phenylamino)-thiophene-3-carbonitrile]
> 5.00 | > 5.00 | COc1ccc(Nc2sc(C(=O)c3cc(OC)ccc3OC)c(N)c2C#N)cc1 [Compound 1-93, 4-Amino-5-(2,5-dimethoxy-benzoyl)-2-(4-methoxy-phenylamino)-thiophene-3-carbonitrile]
> 5.00 | > 5.00 | COc1ccc(OC)c(C(=O)c2sc(Nc3ccc4c(c3)CCC4)c(C#N)c2N)c1 [Compound 1-94, 4-Amino-5-(2,5-dimethoxy-benzoyl)-2-(indan-5-ylamino)-thiophene-3-carbonitrile]
> 5.00 | < 5.00 | COc1ccc(OC)c(C(=O)c2sc(Nc3ccc(C(=O)NC4CCOC4=O)cc3)c(C#N)c2N)c1 (stereo not drawn) [Compound 1-97, 4-[4-Amino-3-cyano-5-(2,5-dimethoxy-benzoyl)-thiophen-2-ylamino]-N-(2-oxo-tetrahydro-furan-3-yl)-benzamide]
> 5.00 | > 5.00 | COc1ccc(C(=O)c2sc(Nc3ccccc3F)c(C#N)c2N)c(OC)c1 [Compound 1-100, 4-Amino-5-(2,4-dimethoxy-benzoyl)-2-(2-fluoro-phenylamino)-thiophene-3-carbonitrile]
